According to PubChem BioAssay AID1918942 (Molecular Pharmacology Branch, DTP, NCI, 2023):

System: 743489-274-T-PDC complex spheroid viability
Experiment: Anticancer human tumor 743489-274-T-PDC patient-derived renal cell carcinoma cell line growth inhibition
Details: for IC50: curve of first compound; for viability, T/C: stronger effect = lower value
From the text: Multicellular complex tumor spheroid response to LSD1 Inhibitor Iadademstat in combination with a variety of drugs and investigational agents in selected tumor cell lines
The current study was undertaken to assess response to LSD1 inhibitors in combination with standard-of-care drugs and investigational agents in solid tumor complex spheroid models as well as in the K-562 leukemia. Complex spheroids include a stromal component modeled by human endothelial cells (HUVEC) and fibroblasts modeled by human mesenchymal stem cells (MSCs). The concentration ranges selected for each drug and investigational agent were based upon clinically achievable concentrations if the clinical Cmax of the agent was known.
Compounds. The drugs and investigational agents used in this study are listed on Table 1. All of the agents used, including staurosporine (NSC755774) and gemcitabine (NSC613327), were obtained from the Developmental Therapeutics Program, NCI. FDA-approved anticancer drugs are available from the NCI at http://dtp.nci.nih.gov/branches/dscb/oncology_drugset_explanation.html. Drugs and investigational agents were >95% pure by proton nuclear magnetic resonance (NMR) and liquid chromatography/mass spectrometry (LC/MS). Stock solutions were prepared at 400x in DMSO, stored at -70 degrees C, and diluted in fresh medium prior to their use. The final concentration of DMSO in cell culture wells never exceeded 0.25% (v/v). The FDA-approved anticancer drug set is available from the Developmental Therapeutics Program at https://dtp.cancer.gov/organization/dscb/obtaining/available_plates.htm. All drugs and investigational agents were tested over a range starting from a high concentration at or near the clinical Cmax and decreasing in half-log increments. If the clinical Cmax for an agent had not been determined, the highest concentration tested was 10 microM.
Cell Lines. The patient-derived cancer cell (PDC) lines: 292921-168-R-J2-PDC, K24384-001-R-PDC, and 521955-158-R2-J5-PDC pancreatic carcinomas, 556581-035-R-J1 ovarian carcinoma, 324938-238-R-J1-PDC, 855422-203-R-J1-PDC and 883617-216-R-J1-PDC urothelial bladder carcinomas, 743489-274-T-PDC renal cell carcinoma, 138582-R-J1 Merkel cell tumor, K60290-347-R-J1 and K57222-313-R-J1-PDC glioblastomas, 653999-131-R-J2-PDC, LG0703-F948-PDC, and 349418-098-R-PDC non-small cell lung carcinomas, 885512-296-R-J2-PDC, 171881-019-R-J1-PDC breast carcinomas and 186277-243-T-J2-PDC and 233499-124-R-J2-PDC colon carcinomas were obtained from the NCI Patient-Derived Models Repository (PDMR, https://pdmr.cancer.gov). The established cell lines NCI/ADR-RES (RRID:CVCL_14520 and OVCAR-5 (RRID:CVCL_1628) ovarian carcinomas, 786-O (RRID:CVCL_1051) and A498 (RRID:CVCL_A498) renal cell carcinoma, NCI-H211 (ATCC, cat. CRL-5824; RRID:CVCL_1529), NCI-H196 (ATCC, cat. CRL-5823, RRID:CVCL_1509), SW 1271 (ATCC, cat. CRL-2177, RRID:CVCL_1716) and NCI-H1876 (ATCC, cat. CRL-5902, RRID:CVCL_1503) small cell lung carcinomas, MDA-MB-231 (RRID:CVCL_0062) and MDA-MB-468 (RRID:CVCL_0419)breast carcinomas (10-12). Pooled donor human umbilical vein endothelial cells (HUVEC, Lonza, cat. CC-2519) and human mesenchymal stem cells (hMSC, Lonza, cat. PT-2501) were purchased from Lonza (Walkersville, MD).
Cell Culture. All cells were maintained in an incubator at 37 degrees C and 5% CO2 with 95% humidity. The PDC lines were cultured according to standard operating procedures established by the NCI PDMR (https://pdmr.cancer.gov). Briefly all PDCs were thawed and cultured in Matrigel-coated flasks prepared with a working solution of 1X Ham's F-12 nutrient mix, without supplementation (Invitrogen, Waltham, MA, cat. 11765054), 100 U/mL penicillin-streptomycin (Invitrogen, cat. 15140122), and 2.5% Matrigel (Corning Inc., Corning, NY, cat. 354248) for the first three passages. […]

[1] = second compound 0.1 µM, first compound 0.000949 µM
[2] = second compound 0.1 µM, first compound 0.003 µM
[3] = second compound 0.1 µM, first compound 0.00949 µM
[4] = second compound 0.1 µM, first compound 0.03 µM
[5] = second compound 0.1 µM, first compound 0.0949 µM
[6] = second compound 0.1 µM, first compound 0.3 µM
[7] = second compound 0.316 µM, first compound 0.000949 µM
[8] = second compound 0.316 µM, first compound 0.003 µM
[9] = second compound 0.316 µM, first compound 0.00949 µM
[10] = second compound 0.316 µM, first compound 0.03 µM
[11] = second compound 0.316 µM, first compound 0.0949 µM
[12] = second compound 0.316 µM, first compound 0.3 µM
[13] = second compound 1 µM, first compound 0.000949 µM
[14] = second compound 1 µM, first compound 0.003 µM
[15] = second compound 1 µM, first compound 0.00949 µM
[16] = second compound 1 µM, first compound 0.03 µM
[17] = second compound 1 µM, first compound 0.0949 µM
[18] = second compound 1 µM, first compound 0.3 µM
[19] = second compound 3.16 µM, first compound 0.000949 µM
[20] = second compound 3.16 µM, first compound 0.003 µM
[21] = second compound 3.16 µM, first compound 0.00949 µM
[22] = second compound 3.16 µM, first compound 0.03 µM
[23] = second compound 3.16 µM, first compound 0.0949 µM
[24] = second compound 3.16 µM, first compound 0.3 µM
[25] = second compound 10 µM, first compound 0.000949 µM
[26] = second compound 10 µM, first compound 0.003 µM
[27] = second compound 10 µM, first compound 0.00949 µM
[28] = second compound 10 µM, first compound 0.03 µM
[29] = second compound 10 µM, first compound 0.0949 µM
[30] = second compound 10 µM, first compound 0.3 µM
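Also: spheroids exposed to compounds for 7 days before readout.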
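For viability, T/C in this document: 100% = DMSO vehicle control wells.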

`CCc1c2c(nc3ccc(O)cc13)-c1cc3c(c(=O)n1C2)COC(=O)[C@]3(O)CC` + NC1CC1c1ccc(-c2cccc(O)c2)cc1 was tested, and the IC50 (second compound 0.1 µM) was 4.88 nM, the IC50 (second compound 0.316 µM) was 2.4 nM and the IC50 (second compound 1 µM) was 2.71 nM. The IC50 (second compound 3.16 µM) was 2.26 nM, the IC50 (second compound 10 µM) was 3.52 nM and the viability, T/C [1] was 62.5%. It also gave a viability, T/C [2] of 52.5%, a viability, T/C [3] of 47.3% and a viability, T/C [4] of 33.7%. It also gave a viability, T/C [5] of 36.4%, a viability, T/C [6] of 33.5% and a viability, T/C [7] of 54.3%. For the same compound, the viability, T/C [8] was 51.7%, the viability, T/C [9] was 45.5% and the viability, T/C [10] was 35%. It also gave a viability, T/C [11] of 36.7%, a viability, T/C [12] of 40.2% and a viability, T/C [13] of 60.5%. The viability, T/C [14] was 51.9%, the viability, T/C [15] was 41.3% and the viability, T/C [16] was 39%. It also gave a viability, T/C [17] of 43.9%, a viability, T/C [18] of 42.7% and a viability, T/C [19] of 57%. It also gave a viability, T/C [20] of 48.7%, a viability, T/C [21] of 42.3% and a viability, T/C [22] of 33.5%. The viability, T/C [23] was 36.7%, the viability, T/C [24] was 34.5% and the viability, T/C [25] was 58.7%. It also gave a viability, T/C [26] of 50.8%, a viability, T/C [27] of 42.5% and a viability, T/C [28] of 35.3%. It also gave a viability, T/C [29] of 32% and a viability, T/C [30] of 38.8%.
With `Nc1ccn(C2OC(CO)C(O)C2(F)F)c(=O)n1` (stereo not given) + NC1CC1c1ccc(-c2cccc(O)c2)cc1 the IC50 (second compound 0.1 µM) was over 300 nM, the IC50 (second compound 0.316 µM) was 46.5 nM and the IC50 (second compound 1 µM) was 153 nM. The IC50 (second compound 3.16 µM) was 25.5 nM, the IC50 (second compound 10 µM) was 110 nM and the viability, T/C [1] was 62.5%. The viability, T/C [2] was 58.5%, the viability, T/C [3] was 95.2% and the viability, T/C [4] was 58%. The viability, T/C [5] was 63.7%, the viability, T/C [6] was 48.5% and the viability, T/C [7] was 67.2%. The viability, T/C [8] was 56.3%, the viability, T/C [9] was 99.8% and the viability, T/C [10] was 51.4%. The viability, T/C [11] was 51.2%, the viability, T/C [12] was 44.2% and the viability, T/C [13] was 57.1%. For the same compound, the viability, T/C [14] was 51.7%, the viability, T/C [15] was 87% and the viability, T/C [16] was 53.9%. The viability, T/C [17] was 46.5%, the viability, T/C [18] was 47.1% and the viability, T/C [19] was 58.4%. For the same compound, the viability, T/C [20] was 62.2%, the viability, T/C [21] was 97.8% and the viability, T/C [22] was 46.3%. For the same compound, the viability, T/C [23] was 44%, the viability, T/C [24] was 48.4% and the viability, T/C [25] was 64.9%. The viability, T/C [26] was 51.4%, the viability, T/C [27] was 87.2% and the viability, T/C [28] was 47.6%. It also gave a viability, T/C [29] of 46.2% and a viability, T/C [30] of 44.9%.
`O=C(c1cc(Cc2n[nH]c(=O)c3ccccc23)ccc1F)N1CCN(C(=O)C2CC2)CC1` + NC1CC1c1ccc(-c2cccc(O)c2)cc1 gave an IC50 (second compound 0.1 µM) of over 10000 nM, an IC50 (second compound 0.316 µM) of over 10000 nM and an IC50 (second compound 1 µM) of over 10000 nM. The IC50 (second compound 3.16 µM) was over 10000 nM, the IC50 (second compound 10 µM) was over 10000 nM and the viability, T/C (second compound 0.1 µM, first compound 0.0316 µM) was 112%. For the same compound, the viability, T/C (second compound 0.1 µM, first compound 0.1 µM) was 115%, the viability, T/C (second compound 0.1 µM, first compound 0.316 µM) was 106% and the viability, T/C (second compound 0.1 µM, first compound 1 µM) was 113%. For the same compound, the viability, T/C (second compound 0.1 µM, first compound 3.16 µM) was 95.7%, the viability, T/C (second compound 0.1 µM, first compound 10 µM) was 92.5% and the viability, T/C (second compound 0.316 µM, first compound 0.0316 µM) was 105%. It also gave a viability, T/C (second compound 0.316 µM, first compound 0.1 µM) of 110%, a viability, T/C (second compound 0.316 µM, first compound 0.316 µM) of 132% and a viability, T/C (second compound 0.316 µM, first compound 1 µM) of 97.4%. For the same compound, the viability, T/C (second compound 0.316 µM, first compound 3.16 µM) was 107%, the viability, T/C (second compound 0.316 µM, first compound 10 µM) was 115% and the viability, T/C (second compound 1 µM, first compound 0.0316 µM) was 117%. For the same compound, the viability, T/C (second compound 1 µM, first compound 0.1 µM) was 104%, the viability, T/C (second compound 1 µM, first compound 0.316 µM) was 114% and the viability, T/C (second compound 1 µM, first compound 1 µM) was 93.8%. It also gave a viability, T/C (second compound 1 µM, first compound 3.16 µM) of 93.3%, a viability, T/C (second compound 1 µM, first compound 10 µM) of 94.7% and a viability, T/C (second compound 3.16 µM, first compound 0.0316 µM) of 98.1%. It also gave a viability, T/C (second compound 3.16 µM, first compound 0.1 µM) of 103%, a viability, T/C (second compound 3.16 µM, first compound 0.316 µM) of 117% and a viability, T/C (second compound 3.16 µM, first compound 1 µM) of 106%. For the same compound, the viability, T/C (second compound 3.16 µM, first compound 3.16 µM) was 100%, the viability, T/C (second compound 3.16 µM, first compound 10 µM) was 99.3% and the viability, T/C (second compound 10 µM, first compound 0.0316 µM) was 118%. It also gave a viability, T/C (second compound 10 µM, first compound 0.1 µM) of 121%, a viability, T/C (second compound 10 µM, first compound 0.316 µM) of 120% and a viability, T/C (second compound 10 µM, first compound 1 µM) of 120%. It also gave a viability, T/C (second compound 10 µM, first compound 3.16 µM) of 95.8% and a viability, T/C (second compound 10 µM, first compound 10 µM) of 94.2%.
